Data set [1] relates to pulmonary vascular resistance (PVR). The settings on record: cited from earlier work.
Data set [2] in a line: Caco-2 permeability test (C-5.1). The class given is in vitro ADME, human. The settings on record: human, Caco-2 (2 μM). The procedure: The in vitro permeation of a test compound across a Caco-2 cell monolayer is a well-established assay system to predict the permeability from the gastro-intestinal tract (1). The permeability of the compounds of the present invention in such Caco-2 cells was determined as described below:
Human caco-2 cells were seeded on 24-well insert plates and were allowed to grow for 14-16 days. For permeability studies, the test compounds were dissolved in DMSO and diluted to the final test concentration of 2 μM with transport buffer [Hanks' Buffered Salt Solution, Gibco/Invitrogen, further supplemented with glucose and HEPES]. For determination of the apical to basolateral permeability (PappA-B), the test compound solution was added to the apical side of the cell monolayer and transport buffer to the basolateral side of the monolayer; for determination of the basolateral to apical permeability (PappB-A), the test compound solution was added to the basolateral side of the cell monolayer and transport buffer to the apical side of the monolayer. Samples were taken from the donor compartment at the beginning of the experiment to confirm mass balance. After an incubation of 2 h at 37° C., samples were taken from both compartments. Samples were analyzed by LC-MS/MS, and the apparent permeability coefficients were calculated. Lucifer Yellow permeability was assayed for each cell monolayer to ensure cell monolayer integrity, and the permeability of Atenolol (low permeability marker) and Sulfasalazine (marker for active excretion) was determined for each batch as quality control.
(In general: Caco-2 monolayers are a common model of the intestinal barrier.)

In data set [3] the test system is thromboxane analog U46619 induced PAH in minipigs. In words: PAH minipig model: comparison with and on top of standard of care (bosentan, sildenafil, riociguat). The data set is classed as in vivo, Göttingen minipig. From the text: Efficacy of inhaled comparative example 11 was compared with systemically applied bosentan, sildenafil and riociguat (see FIG. 53a) in the PAH minipig model. […] Therefore inhaled application of comparative example 11 offers clear benefits as systemic effects are avoided, compared to standard of care.

The test system of data set [4] is isolated Langendorff-perfused rat heart. In words: Isolated perfused heart according to Langendorff: perfusion pressure and wash-out score (C-1.2). The settings on record: comparative example 11 300 nmol/l, others 100 nmol/l, n=6. As to the method:
Male Wistar rats (strain HsdCpb:WU) with a body weight of 200-250 g were anaesthetized with Narcoren® (100 mg/kg). The thorax was opened and the heart was then exposed, excised and connected to a Langendorff apparatus by placing a cannula into the aorta. The heart was perfused retrogradely at 9 ml/min at constant flow with a Krebs-Henseleit buffer solution (gassed with 95% O2 and 5% CO2, pH 7.4, 35° C.; composition in mmol/l: NaCl 118; KCl 3; NaHCO3 22; KH2PO4 1.2; MgSO4 1.2; CaCl2 1.8; Glucose 10; Na pyruvate 2). A pressure transducer registered the perfusion pressure in the perfusion system. The left ventricular pressure (LVP) was measured using a second pressure transducer connected to a water-filled balloon which was inserted into the left ventricle via the left atrium. The end diastolic pressure was initially set to 8 mm Hg by adjusting the volume of the balloon. The hearts were spontaneously beating. The signals from the pressure transducer were amplified, registered by a personal computer (Powerlab Chart software, ADInstruments).
Then the hearts were perfused for a further 120 min without the test substance (wash-out phase). The reversibility of the effect (wash-out score) was calculated as a percentage of the PP recovery after 60 min of washout related to the maximum drop of PP induced by the test compound. The wash-out score obtained in this manner was taken as a measure for the residence time of the test substance at the site of action.

A short description of data set [5]: Protein binding via ultrafiltration assay (comparative example 2). The data set is classed as in vitro ADME. The text has this:
For this assay, filter membranes of 30 kDa pore size were used to separate plasma and protein free ultrafiltrate. The driving force for filtration was applied by centrifugation. Prior to protein binding studies, the adsorption (recovery) of the test compound to the ultra-filtration device and the ability of the test compound to pass the filter membrane was checked by filtration of the test compound dissolved in buffer at four concentrations. Sufficient stability of the test compound and an almost complete recovery (≥90% of the actual amount of compound used for the experiment) was a prerequisite for the use of the ultrafiltration method. The amount of organic solvent added to the plasma may not exceed 2% of the total incubation volume. Blood samples were collected in heparinized tubes either pooled (all species except human and monkey) or individually (human and monkey) and were used within 24 h for incubation experiments in blood. Plasma was prepared by centrifugation of the heparinized blood samples. Plasma was stored at −15° C. until use. Plasma stability, Compound recovery, unspecific binding to the membrane and the test device as well as partitioning between blood cells and plasma were controlled. The substance-associated radioactivity was determined by liquid scintillation counting. With this analytical method, it is not possible to distinguish between unchanged substance and radioactive metabolites. For details of the radioanalytical methods and the work up of the samples see Goeller et al. (3). A description of the ultrafiltration method in general was published by Zhang et al. In 2012 (4).

Data set [6] has as its system thromboxane analog U46619 induced PAH in minipigs. In words: Haemodynamics (PAP, BP) in the anesthetized thromboxane challenged PAH minipig after inhaled (nebulized) application (C-2.1). The class given is in vivo, Göttingen minipig. The settings on record: inhaled; Ventavis 10 μg/kg nominal dose; comparative example 11 10, 30 and 100 μg/kg nominal dose; 240 min observation interval. In short, it runs like this: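 Anesthetized, ventilated Göttingen minipigs (2-6 kg) given continuous infusion (0.3-0.75 μg/kg/min) to raise mean PAP above 25 mmHg, dosing starting after a 30 min plateau. Compound in 1% DMSO/0.2% citric acid, pH 8, nebulized via Aeroneb Pro into the inspiratory arm (~7 min; stock 300 μg/kg). PAP by Swan-Ganz catheter, BP via carotid catheter.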

Data set [7] concerns thromboxane analog U46619 induced PAH in minipigs with ODQ or L-NAME pretreatment. In words: PAH minipig model under oxidative stress / low NO (pretreatment by ODQ or L-NAME). The settings on record: for BP / PAP: Ventavis 10 μg/kg nominal dose inhaled. The class given is in vivo, Göttingen minipig. On the set-up: PAP / BP: unit not given beside the values. As to the method: To simulate conditions of oxidative stress or low NO concentrations as assumed to be present in different cardiovascular disorders, comparative example 11 was evaluated with and without pretreatment by ODQ (inhibitor of sGC) or L-NAME (NOS inhibitor). […] In contrast, the effects of Ventavis® under conditions of oxidative stress or low NO concentrations were not enhanced. In addition, also under these pathophysiological conditions the duration of action of comparative example 11 was much longer compared to Ventavis®.

Setting [8] is: Riociguat 3 μg/kg/h systemically applied, % change per animal.

Broadly, the efflux ratio is the permeability from basolateral to apical divided by that in the opposite direction, in the common usage. As a reminder, the fraction unbound is free concentration divided by total concentration.

Values joined by “and” are separate entries in the source; they are usually repeats but may differ in a detail not shown here. Equal entries are not always repeated.

As to `CCCCC[C@H](O)CC[C@@H]1[C@H]2Cc3cccc(OCC(=O)O)c3C[C@H]2C[C@H]1O` [Treprostinil], the “mean change in PVR from baseline” value in data set [1] (single administration, historical comparison) was −30%.
With `COC(=O)N(C)c1c(N)nc(-c2nn(Cc3ccccc3F)c3ncccc23)nc1N` [comparative example 2, Methyl-4,6-diamino-2-[1-(2-fluorobenzyl)-1H-pyrazolo[3,4-b]pyridine-3-yl]-5-pyrimi-dinyl(methyl)carbamate, reference compound], in data set [2], the efflux ratio at 2 h, 2 μM worked out at 11 ± 3.3. Further, the Papp A→B at 2 h, 2 μM in data set [2] (concentration per compound 2.0 or 2.4 μM, read-out: Papp A-B (mean +/− SD)) was 3.5 ± 0.84 ×10⁻⁶ cm/s. Further, the Papp B→A at 2 h, 2 μM in data set [2] (concentration per compound 2.0 or 2.4 μM, read-out: Papp B-A (mean +/− SD)) came to 36.7 ± 7.5 ×10⁻⁶ cm/s. For the same molecule, the BP decrease % in data set [3] (setting [8]) is −0.3% and −8.8% and −10.9%. The PAP decrease % in data set [3] (setting [8]) was −9.1% (2×) and −16.8%. In data set [3] (bosentan 1 mg/kg, sildenafil 300 μg/kg/h, riociguat 3 μg/kg/h systemically, comparative example 11 30 and 100 μg/kg inhaled), the “effects on PAP and BP” value is “decreases in both PAP and BP”. For the same molecule, in data set [4] (PP recovery after 60 min of washout related to maximum drop of PP), the wash-out score worked out at 98%. In addition, in data set [4], the “effect on perfusion pressure (PP)” value is “pronounced reduction of perfusion pressure”. Moreover, the fraction unbound in data set [5] (Dog Beagle plasma) turned out to be 0.171; in data set [5] (Human (male) plasma), 0.0497; in data set [5] (Rat Wistar plasma), 0.157.
`CC#CCC(C)[C@H](O)/C=C/[C@@H]1[C@H]2C/C(=C/CCCC(=O)O)C[C@H]2C[C@H]1O` (stereo partly drawn) [Ventavis, reference compound]: in data set [6], the duration of action entry was “about 40 min”. In addition, the BP in data set [7] (L-NAME pretreatment, Time 70) was 105.0 and 133.0 and 125.0; in data set [7] (L-NAME pretreatment, Time 80) it was 106.0 and 131.0 and 123.0; in data set [7] (L-NAME pretreatment, Time 90) it was 102.0 and 124.0 and 121.0; in data set [7] (L-NAME pretreatment, Time 100) it was 101.0 and 124.0 and 117.0; in data set [7] (L-NAME pretreatment, Time 110) it was 101.0 and 125.0 and 114.0; in data set [7] (ODQ pretreatment, Time 70), 97.0 and 103.0 and 92.0. The BP in data set [7] (ODQ pretreatment, Time 80) was 98.0 and 105.0 and 92.0; in data set [7] (ODQ pretreatment, Time 90), 100.0 and 104.0 and 92.0; in data set [7] (ODQ pretreatment, Time 100), 101.0 and 104.0 and 93.0; in data set [7] (ODQ pretreatment, Time 110), 103.0 and 94.0; in data set [7] (without pretreatment, Time 70) it was 107.0 and 109.0 and 116.0; in data set [7] (without pretreatment, Time 80) it was 102.0 and 110.0 and 113.0. Also, the BP is 99.0 and 109.0 and 111.0 in data set [7] (without pretreatment, Time 90); 98.0 and 106.0 and 108.0 in data set [7] (without pretreatment, Time 100); 95.0 and 105.0 and 106.0 in data set [7] (without pretreatment, Time 110). For the same molecule, the PAP in data set [7] (L-NAME pretreatment, Time 70) is 31.7 and 27.4 and 28.7; in data set [7] (L-NAME pretreatment, Time 80), 41.2 and 33.5 and 29.7; in data set [7] (L-NAME pretreatment, Time 90), 42.2 and 37.9 and 32.1; in data set [7] (L-NAME pretreatment, Time 100) it was 41.5 and 39.6 and 38.9; in data set [7] (L-NAME pretreatment, Time 110), 41.5 and 41.0; in data set [7] (ODQ pretreatment, Time 70) it was 33.6 and 26.4 and 25.9. The PAP in data set [7] (ODQ pretreatment, Time 80) was 37.4 and 32.8 and 32.1; in data set [7] (ODQ pretreatment, Time 90), 38.5 and 37.5 and 38.2; in data set [7] (ODQ pretreatment, Time 100), 38.8 and 40.6 and 39.2; in data set [7] (ODQ pretreatment, Time 110) it was 39.3 and 39.5 and 40.0; in data set [7] (without pretreatment, Time 70) it was 26.1 and 28.2 and 29.6; in data set [7] (without pretreatment, Time 80), 34.7 and 36.7 and 37.4. Also, the PAP is 38.9 and 41.2 in data set [7] (without pretreatment, Time 90); 37.9 and 39.2 and 41.9 in data set [7] (without pretreatment, Time 100); 38.4 and 39.5 and 42.2 in data set [7] (without pretreatment, Time 110). Further, the “effect on PAP after pretreatment of ODQ or L-NAME” value in data set [7] (inhaled, comparative example 11 30 μg/kg ND, Ventavis 10 μg/kg nominal dose) is given as “not enhanced”. Further, the “duration of action on haemodynamics (PVR) in clinical studies” value in data set [1] (inhaled, patients) is given as “about 60 min”.

The record behind these values is patent US12138256B2, “Treatment of cardiopulmonary disorders” (Bayer Aktiengesellschaft, priority 2021, dated 2024).
